This passage reports outcome and Potency results from PubChem BioAssay AID1199 (EPA DSSTox, 2008).

The subject of this data set is mouse carcinogenicity bioassay, TD50 from CPDB. Nature of the data set: DSSTox (CPDBAS) Carcinogenic Potency Database Summary Mouse Bioassay Results. From the text:
The Carcinogenic Potency Database (CPDB) is a unique and widely used international resource of the results of over 6500 chronic, long-term animal cancer tests on over 1500 chemical substances. The CPDB provides easy access to the bioassay literature, with qualitative and quantitative analyses of both positive and negative experiments that have been published over the past 50 years in the general literature and by the National Cancer Institute/National Toxicology Program. The CPDB standardizes the diverse literature of cancer bioassays that vary widely in protocol, histopathological examination and nomenclature, and in the published author's choices of what information to provide in their papers. Results are reported in the CPDB for tests in rats, mice, hamsters, dogs, and nonhuman primates, and are based on the most positive result among all experiments for each sex-species. The DSSTox CPDBAS (all species) file incorporates data from the CPDB Summary Tables for the full list of over 1500 chemical substances tested in at least one species. Summary bioassay results for Mouse (TD50, tumor sites, male, female, both sexes) are provided in the CPDB Summary Tables and the DSSTox CPDBAS file for over 1000 chemical substances.
TD50 is a standardized quantitative measure of carcinogenic potency (analogous to an LD50) and is reported in the CPDB Summary Table for each species. Activity Score for actives is computed by mapping of LOG10 (1/TD50_Mouse_mmol) activity values spanning range [MIN, MAX] onto Integer 1-100 Activity Score range, where 100 is highest potency and 1 is lowest: Activity Score = 100 * INTEGER[(log10(1/Activity) - MIN)/(MAX […] MIN)]. If activity is reported but no TD50_Mouse_mmol value is computed, such as for a mixture, the Activity Score is assigned the activity value "50". […] Target sites are reported for each sex-species group with a positive result in the CPDB on the basis of a positive author's opinion for the particular site, using all results from both the general literature and NCI/NTP bioassays. If a chemical has two or more target sites listed, the results may be from different experiments, and a single site may be a target organ in more than one experiment, as well. Blank entry in TargetSites field indicates no results reported.

The mark [1] stands for this setting: TD50_Mouse_Note: no positive results, TargetSites_Mouse_Female: no positive results.
Setting [2] is: TD50_Mouse_Note: TD50 is harmonic mean of more than one positive test, TargetSites_Mouse_Female: liver.
Where [3] appears, read: TD50_Mouse_Note: TD50 is harmonic mean of more than one positive test, TargetSites_Mouse_Female: hematopoietic system, stomach.
Setting [4] is: TD50_Mouse_Note: TD50 is harmonic mean of more than one positive test, TargetSites_Mouse_Female: lung.
[5] abbreviates: TargetSites_Mouse_Female: liver.
Setting [6] is: TargetSites_Mouse_Female: no positive results.
Where [7] appears, read: TD50_Mouse_Note: TD50 is harmonic mean of more than one positive test, TargetSites_Mouse_Female: liver, vascular system.

The source made the active and inactive calls.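 Rule for the calls: active = a tumour-causing dose and a tumour site recorded for mice in at least one sex group; inconclusive = only government mouse studies exist and were judged inadequate; inactive = mouse studies exist but none gave tumours.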

For the compound `CC(=O)C(N=Nc1ccc(-c2ccc(N=NC(C(C)=O)C(=O)Nc3ccccc3)c(Cl)c2)cc1Cl)C(=O)Nc1ccccc1` (configuration not stated), the outcome under setting [1] is “inactive; no positive results”. As to `Cc1cccc(N)c1`, for the setting “TD50_Mouse_Note: no positive results are statistically significant, TargetSites_Mouse_Female: no positive results”, the Potency is 10 mmol/kg/day.

Turning to `O=C([O-])C(=O)O.O=C([O-])C(=O)O.[K+].[K+].[O]=[Ti]`, the outcome under setting [1] was “inactive; no positive results”. On to `O=C1C2(Cl)C3(Cl)C4(Cl)C(Cl)(Cl)C5(Cl)C3(Cl)C1(Cl)C5(Cl)C24Cl` (configuration not stated), for which the Potency under setting [2] was 0.002 mmol/kg/day. As for `O=S1(=O)CC=CC1`, the outcome under setting [1] was “inactive; no positive results”.

`CC/C(=C(/CC)c1ccc(O)cc1)c1ccc(O)cc1`: the Potency (TD50_Mouse_Note: TD50 is harmonic mean of more than one positive test, TargetSites_Mouse_Female: mammary gland, ovary, pituitary gland, thyroid gland, uterus) is 0.000146 mmol/kg/day. Take `CC(=O)Nc1ccc(C(=O)CCl)cc1`: under setting [1], the outcome was “inactive; no positive results”. As for `Nc1nc(/C=C/c2ccc([N+](=O)[O-])o2)no1`, the Potency under setting [3] is 0.504 mmol/kg/day. For `C=C1C[C@]23C[C@@]1(O)CC[C@H]2[C@@]12C=C[C@H](O)[C@@](C)(C(=O)O1)[C@H]2[C@@H]3C(=O)O`, the outcome under setting [1] is “inactive; no positive results”.

Regarding `O=P(OCCCl)(OCCCl)OCCCl`, the Potency under setting [3] is 3.39 mmol/kg/day. As to `Cc1cnc2ccc3c(nc(N)n3C)c2n1`, the Potency (TD50_Mouse_Note: TD50 is harmonic mean of more than one positive test, TargetSites_Mouse_Female: liver, lung) is 0.114 mmol/kg/day. Turning to `ClCC(Cl)CCl`, the Potency (TD50_Mouse_Note: TD50 is harmonic mean of more than one positive test, TargetSites_Mouse_Female: harderian gland, liver, oral cavity, stomach, uterus) is 0.00593 mmol/kg/day. Take `CN(C)C(=O)Cl`: the Potency (TD50_Mouse_Note: positive test results only by intraperitoneal or intravenous injection, TargetSites_Mouse_Female: peritoneal cavity) is 0.0499 mmol/kg/day. Take `CCN(CC)CC#CC(C)(C)OC(=O)C(O)(c1ccccc1)C1CCCCC1` (configuration not stated): the outcome under setting [1] is “inactive; no positive results”. For `O=NN(c1ccccc1)c1ccccc1`, the outcome under setting [1] was “inactive; no positive results”.

As to `Cc1c(COC(=O)C2C(/C=C(\Cl)C(F)(F)F)C2(C)C)cccc1-c1ccccc1` (configuration not stated), the outcome under setting [1] is “inactive; no positive results”. On to `CCCNN`, for which the Potency under setting [4] was 0.411 mmol/kg/day. On to `CCCl`, for which, for the setting “TargetSites_Mouse_Female: uterus”, the Potency was 28.1 mmol/kg/day. As to `[Cd+2].[Cl-].[Cl-]`, the result under setting [1] was inactive. On to `C=CC(O)c1ccc(OC)cc1` (configuration not stated), for which the Potency under setting [5] is 0.352 mmol/kg/day. With `Nc1ccccc1C(=O)O`, the outcome under setting [1] is “inactive; no positive results”. For `O=C1C=CC(=O)C=C1`, under “TD50_Mouse_Note: TD50 is harmonic mean of more than one positive test, TargetSites_Mouse_Female: hematopoietic system”, the Potency is 0.0469 mmol/kg/day. For `Nc1cc(Cl)c(-c2cc(Cl)c(N)cc2Cl)cc1Cl`, the outcome under setting [1] was inactive.

With `ClCC1CO1` (configuration not stated), the result under setting [1] was inactive. Still for that read-out and setting: the value for `CCCCNC(=O)NS(=O)(=O)c1ccc(C)cc1` was “inactive; no positive results”. On to `O=C(O)c1ccncc1`, for which the outcome under setting [1] is “inactive; no positive results”. The same measure, in the same setting: then `O=[N+]([O-])c1cccc2ccccc12`, with “inactive; no positive results”. On to `O=[N+]([O-])c1ccccc1`, for which, for the setting “TD50_Mouse_Note: TD50 is harmonic mean of more than one positive test, TargetSites_Mouse_Female: liver, mammary gland”, the Potency was 2.4 mmol/kg/day. With `ClC#CCl`, the Potency (TD50_Mouse_Note: TD50 is harmonic mean of more than one positive test, TargetSites_Mouse_Female: harderian gland, kidney) is 0.00605 mmol/kg/day. Turning to `CC(Oc1cc(Cl)c(Cl)cc1Cl)C(=O)O` (configuration not stated), the outcome under setting [1] is “inactive; no positive results”. With `CCCC[C@H](C)[C@@H](OC(=O)C[C@H](CC(=O)O)C(=O)O)[C@@H](C[C@H](C)C[C@@H](O)CCCC[C@@H](O)C[C@H](O)[C@H](C)N)OC(=O)C[C@H](CC(=O)O)C(=O)O`, the Potency under setting [5] was 0.00941 mmol/kg/day.

Turning to `CCN(Cc1cccc(S(=O)(=O)O)c1)c1ccc(C(=C2C=CC(=[N+](CC)Cc3cccc(S(=O)(=O)O)c3)C=C2)c2ccc(O)cc2S(=O)(=O)[O-])cc1`, the outcome under setting [1] is “inactive; no positive results”. In the case of `COC1=CC(=O)C[C@@H](C)[C@]12Oc1c(Cl)c(OC)cc(OC)c1C2=O`, the Potency (TD50_Mouse_Note: TD50 is harmonic mean of more than one positive test, TargetSites_Mouse_Female: mammary gland) is 0.0391 mmol/kg/day. Take `O=C(O)O`: the outcome (TD50_Mouse_Note: no positive results) was “inactive; no positive results”. Consider `CCCCC(CC)COC(=O)COc1ccc(Cl)cc1Cl` (configuration not stated), for which the outcome under setting [1] is “inactive; no positive results”. On to `Cc1ccc(S(=O)(=O)NC(=O)NN2CCCCCC2)cc1`, for which the outcome under setting [1] is “inactive; no positive results”.

Take `Cc1cc(OC(=O)N(C)C)n(C(C)C)n1`: the outcome under setting [1] is “inactive; no positive results”. With `O=Nc1ccc(NO)cc1`, the outcome under setting [1] was “inactive; no positive results”. Turning to `CCCCNC(N)=O`, under setting [1], the outcome was “inactive; no positive results”. On the same count and under the same terms, then `Cc1c(N(C)C)c(=O)n(-c2ccccc2)n1C`, with “inactive; no positive results”; and `CN(C)C(=S)S`, with “inactive; no positive results”. For the compound `CC(=O)N[C@@H](CC(C)C)C(=O)N[C@@H](CC(C)C)C(=O)N[C@H](C=O)CCCN=C(N)N`, the Potency under setting [6] was 0.131 mmol/kg/day.

For the compound `CC(Cl)CCl` (configuration not stated), the Potency under setting [2] was 2.44 mmol/kg/day. On to `C=C(C)C`, for which the outcome under setting [1] is “inactive; no positive results”.

`Cc1cccn2c1nc1ccc(N)nc12`: the Potency under setting [7] is 0.0272 mmol/kg/day.

Turning to `CCc1cc(C(N)=S)ccn1`, for the setting “TargetSites_Mouse_Female: thyroid gland”, the Potency is 0.417 mmol/kg/day. In the case of `Nc1ccc(Oc2ccc(N)c(N)c2)cc1`, the Potency is 0.0618 mmol/kg/day. For the compound `c1ccc2occc2c1`, the Potency (TD50_Mouse_Note: TD50 is harmonic mean of more than one positive test, TargetSites_Mouse_Female: liver, lung, stomach) was 0.212 mmol/kg/day. For `Cc1cc2ncccc2c2nc(N)n(C)c12`, under “TD50_Mouse_Note: TD50 is harmonic mean of more than one positive test, TargetSites_Mouse_Female: large intestine, liver, stomach”, the Potency was 0.073 mmol/kg/day. For `CNNC`, the Potency (TD50_Mouse_Note: TD50 is harmonic mean of more than one positive test, harmonic mean of TD50 includes a value for upper 99% confidence li, TargetSites_Mouse_Female: lung, vascular system) is 0.000857 mmol/kg/day. As to `CNCCC(Oc1ccc(C(F)(F)F)cc1)c1ccccc1` (configuration not stated), the outcome under setting [1] was “inactive; no positive results”.

Consider `O=C1c2ccccc2C(=O)N1SC(Cl)(Cl)Cl`, for which the Potency (TD50_Mouse_Note: TD50 is harmonic mean of more than one positive test, TargetSites_Mouse_Female: small intestine) is 5.23 mmol/kg/day. With `CCCCN(N)C=O`, the Potency (TD50_Mouse_Note: TD50 is harmonic mean of more than one positive test, TargetSites_Mouse_Female: clitoral gland, lung) is 0.166 mmol/kg/day.

On to `CN(C)C(=S)[S][Bi]([S]C(=S)N(C)C)[S]C(=S)N(C)C`, for which, under setting [1], the outcome was “inactive; no positive results”. For the compound `Nc1ccc([N+](=O)[O-])cc1`, the outcome under setting [1] was “inactive; no positive results”. Turning to `CCC1(c2ccccc2)C(=O)NC(=O)NC1=O`, for the setting “TD50_Mouse_Note: TD50 is harmonic mean of more than one positive test, harmonic mean of TD50 includes a value for upper 99% confidence li, TargetSites_Mouse_Female: liver”, the Potency was 0.0317 mmol/kg/day. As for `ClC1=C(Cl)[C@@]2(Cl)[C@@H]3[C@@H](Cl)[C@H](Cl)C[C@@H]3C1(Cl)C2(Cl)Cl`, the Potency (TD50_Mouse_Note: TD50 is harmonic mean of more than one positive test, greater than ten-fold variation among TD50 values for positive res, TargetSites_Mouse_Female: liver) was 0.00334 mmol/kg/day.

Turning to `Oc1c(Cl)c(Cl)c(Cl)c(Cl)c1Cl`, the Potency runs as follows: (TD50_Mouse_Note: TD50 is harmonic mean of more than one positive test, TargetSites_Mouse_Female: adrenal gland, liver, vascular system) 0.0901 mmol/kg/day; under setting [7], 0.0864 mmol/kg/day. Further, under setting [1], the result was inactive. As for `[Cl-].[Cl-].[Sn+2]`, the outcome under setting [1] is “inactive; no positive results”.

On to `C=CCOCC1CO1` (configuration not stated), for which the Potency under setting [6] was 1.59 mmol/kg/day. For the compound `c1ccc(Nc2ccc3ccccc3c2)cc1`, the outcome under setting [1] was “inactive; no positive results”.

With `CC(=O)Nc1ccc(O)cc1`, the Potency under setting [2] is 10.7 mmol/kg/day. As for `CC(CN1CC(=O)NC(=O)C1)N1CC(=O)NC(=O)C1` (configuration not stated), where the note is “TD50_Mouse_Note: positive test results only by intraperitoneal or intravenous injection, TargetSites_Mouse_Female: hematopoietic system”, the Potency was 0.0883 mmol/kg/day. For the compound `O=S(=O)(O)c1cc(S(=O)(=O)O)c2c(N=Nc3ccccc3)c(O)ccc2c1`, the outcome under setting [1] was “inactive; no positive results”.

With `Nc1ccc2cc3ccc(N)cc3nc2c1`, the outcome (TD50_Mouse_Note: only experiment is NCI/NTP bioassay inadequate, TargetSites_Mouse_Female: NTP bioassay inadequate) was “ntp bioassay inadequate”. `CCNN`: the Potency (TD50_Mouse_Note: TD50 is harmonic mean of more than one positive test, TargetSites_Mouse_Female: lung, vascular system) is 0.0679 mmol/kg/day. Turning to `Oc1ccccc1-c1ccccc1`, the outcome under setting [1] is “inactive; no positive results”. For the compound `CC(=O)NN`, under setting [4], the Potency was 0.133 mmol/kg/day.

On to `CCOc1ccc(NC(C)=O)cc1`, for which the Potency (TD50_Mouse_Note: TD50 is harmonic mean of more than one positive test, greater than ten-fold variation among TD50 values for positive res, TargetSites_Mouse_Female: urinary bladder) is 11.9 mmol/kg/day. `COc1ccccc1[N+](=O)[O-]`: under setting [2], the Potency is 1.16 mmol/kg/day.
